Target: T1, recombinant human NK3 receptor (Homo sapiens, UniProt P29371)
T1 construct: expressed in transfected cells; host or cells: HEK293 cells, transient expression; membranes
T1 sequence (P29371 1-465): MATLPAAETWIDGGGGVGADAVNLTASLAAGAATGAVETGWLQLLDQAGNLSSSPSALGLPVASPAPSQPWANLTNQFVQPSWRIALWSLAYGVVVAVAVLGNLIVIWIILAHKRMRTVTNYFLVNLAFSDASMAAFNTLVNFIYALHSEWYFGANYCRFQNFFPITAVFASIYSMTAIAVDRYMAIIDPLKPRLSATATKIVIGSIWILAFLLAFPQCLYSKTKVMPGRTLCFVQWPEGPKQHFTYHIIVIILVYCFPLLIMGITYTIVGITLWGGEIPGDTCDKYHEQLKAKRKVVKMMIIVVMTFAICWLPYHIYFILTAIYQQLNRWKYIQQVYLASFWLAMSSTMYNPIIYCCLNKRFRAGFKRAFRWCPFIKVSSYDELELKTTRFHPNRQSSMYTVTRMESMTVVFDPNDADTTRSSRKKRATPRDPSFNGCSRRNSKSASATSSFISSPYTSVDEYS
Test: [3H]SR142801 competition binding assay

Question: With `CN(C(=O)Oc1ccc(F)cc1)[C@@H]1CN(C(=O)C2CCN(C(=O)C3CCC3)CC2)C[C@H]1c1ccc(Cl)cc1` [Example 247, [(3S,4R)-4-(4-Chloro-phenyl)-1-(1-cyclobutanecarbonyl-piperidine-4-carbonyl)-pyrrolidin-3-yl]-methyl-carbamic acid 4-fluoro-phenyl ester] as the compound, how does the Ki read?
Answer: 0.9 nM

Question: Which Ki does the source give for `CN(C(=O)Oc1ccc(F)cc1)[C@@H]1CN(C(=O)C2CCN(C(=O)C3(C)COC3)CC2)C[C@H]1c1ccc(Cl)cc1` [Example 248, {(3S,4R)-4-(4-Chloro-phenyl)-1-[1-(3-methyl-oxetane-3-carbonyl)-piperidine-4-carbonyl]-pyrrolidin-3-yl}-methyl-carbamic acid 4-fluoro-phenyl ester] here?
Answer: 2.8 nM

Question: `CN(C(=O)Oc1ccc(F)cc1)[C@@H]1CN(C(=O)C2CCN(C(=O)C3CC(F)C3)CC2)C[C@H]1c1ccc(Cl)cc1` (stereo partly drawn) [Example 249, {(3S,4R)-4-(4-Chloro-phenyl)-1-[1-(3-fluoro-cyclobutanecarbonyl)-piperidine-4-carbonyl]-pyrrolidin-3-yl}-methyl-carbamic acid 4-fluoro-phenyl ester] was tested. Which Ki did it give?
Answer: 1.9 nM

Question: With `CN(C(=O)Oc1ccc(F)cc1)[C@@H]1CN(C(=O)C2CCN(C(=O)C3CC(F)(F)C3)CC2)C[C@H]1c1ccc(Cl)cc1` [Example 250, {(3S,4R)-4-(4-Chloro-phenyl)-1-[1-(3,3-difluoro-cyclobutanecarbonyl)-piperidine-4-carbonyl]-pyrrolidin-3-yl}-methyl-carbamic acid 4-fluoro-phenyl Ester] as the compound, how does the Ki read?
Answer: 1.4 nM

Question: For `COC1CC(C(=O)N2CCC(C(=O)N3C[C@@H](N(C)C(=O)Oc4ccc(F)cc4)[C@H](c4ccc(Cl)cc4)C3)CC2)C1` (stereo partly drawn) [Example 251, {(3S,4R)-4-(4-Chloro-phenyl)-1-[1-(3-methoxy-cyclobutanecarbonyl)-piperidine-4-carbonyl]-pyrrolidin-3-yl}-methyl-carbamic acid 4-fluoro-phenyl ester], which Ki is on record?
Answer: 2.2 nM

Question: `CN(C(=O)Oc1ccc(F)cc1)[C@@H]1CN(C(=O)C2CCN(C(=O)C3(C(F)(F)F)CCC3)CC2)C[C@H]1c1ccc(Cl)cc1` [Example 252, {(3S,4R)-4-(4-Chloro-phenyl)-1-[1-(1-trifluoromethyl-cyclobutanecarbonyl)-piperidine-4-carbonyl]-pyrrolidin-3-yl}-methyl-carbamic acid 4-fluoro-phenyl ester] was tested. Which Ki did it give?
Answer: 2.7 nM

Question: Which Ki does the source give for `CN(C(=O)Oc1ccc(F)cc1)[C@@H]1CN(C(=O)C2CCN(C(=O)CC#N)CC2)C[C@H]1c1ccc(Cl)cc1` [Example 253, {(3S,4R)-4-(4-Chloro-phenyl)-1-[1-(2-cyano-acetyl)-piperidine-4-carbonyl]-pyrrolidin-3-yl}-methyl-carbamic acid 4-fluoro-phenyl ester] here?
Answer: 1.8 nM

Question: For `CN(C(=O)Oc1ccc(F)cc1)[C@@H]1CN(C(=O)C2CCN(C(=O)C3(C#N)CC3)CC2)C[C@H]1c1ccc(Cl)cc1` [Example 254, {(3S,4R)-4-(4-Chloro-phenyl)-1-[1-(1-cyano-cyclopropanecarbonyl)-piperidine-4-carbonyl]-pyrrolidin-3-yl}-methyl-carbamic acid 4-fluoro-phenyl ester], which Ki is on record?
Answer: 2 nM

Question: For `CN(C(=O)Oc1ccc(F)cc1)[C@@H]1CN(C(=O)C2CCN(C(=O)C3(C(F)(F)F)CC3)CC2)C[C@H]1c1ccc(Cl)cc1` [Example 255, {(3S,4R)-4-(4-Chloro-phenyl)-1-[1-(1-trifluoromethyl-cyclopropanecarbonyl)-piperidine-4-carbonyl]-pyrrolidin-3-yl}-methyl-carbamic acid 4-fluoro-phenyl ester], which Ki is on record?
Answer: 2.5 nM

Question: For `CN(C(=O)Oc1ccc(F)cc1)[C@@H]1CN(C(=O)C2CCN(C(=O)C3CC3(F)F)CC2)C[C@H]1c1ccc(Cl)cc1` (stereo partly drawn) [Example 256, {(3S,4R)-4-(4-Chloro-phenyl)-1-[1-(2,2-difluoro-cyclopropanecarbonyl)-piperidine-4-carbonyl]-pyrrolidin-3-yl}-methyl-carbamic acid 4-fluoro-phenyl ester], which Ki is on record?
Answer: 2.6 nM

Question: How did the Ki turn out when `CN(C(=O)Oc1ccc(F)cc1)[C@@H]1CN(C(=O)C2CCN(C(=O)C3CCOCC3)CC2)C[C@H]1c1ccc(Cl)cc1` [Example 257, {(3S,4R)-4-(4-Chloro-phenyl)-1-[1-(tetrahydro-pyran-4-carbonyl)-piperidine-4-carbonyl]-pyrrolidin-3-yl}-methyl-carbamic acid 4-fluoro-phenyl ester] was run?
Answer: 2.2 nM

Question: For `CN(C(=O)Oc1ccc(F)cc1)[C@@H]1CN(C(=O)C2CCN(C(=O)C3CCOC(C)(C)C3)CC2)C[C@H]1c1ccc(Cl)cc1` (stereo partly drawn) [Example 258, {(3S,4R)-4-(4-Chloro-phenyl)-1-[1-(2,2-dimethyl-tetrahydro-pyran-4-carbonyl)-piperidine-4-carbonyl]-pyrrolidin-3-yl}-methyl-carbamic acid 4-fluoro-phenyl ester], which Ki is on record?
Answer: 2.9 nM

Question: With `COCC1(C(=O)N2CCC(C(=O)N3C[C@@H](N(C)C(=O)Oc4ccc(F)cc4)[C@H](c4ccc(Cl)cc4)C3)CC2)CC1` [Example 259, {(3S,4R)-4-(4-Chloro-phenyl)-1-[1-(1-methoxymethyl-cyclopropanecarbonyl)-piperidine-4-carbonyl]-pyrrolidin-3-yl}-methyl-carbamic acid 4-fluoro-phenyl ester] as the compound, how does the Ki read?
Answer: 3.8 nM

Question: Which Ki does the source give for `CN(C(=O)Oc1ccc(F)cc1)[C@@H]1CN(C(=O)C2CCN(C(=O)C3CC3(C)C)CC2)C[C@H]1c1ccc(Cl)cc1` (stereo partly drawn) [Example 260, {(3S,4R)-4-(4-Chloro-phenyl)-1-[1-(2,2-dimethyl-cyclopropanecarbonyl)-piperidine-4-carbonyl]-pyrrolidin-3-yl}-methyl-carbamic acid 4-fluoro-phenyl ester] here?
Answer: 1.5 nM

Question: For `CN(C(=O)Oc1ccc(F)cc1)[C@@H]1CN(C(=O)C2CCN(C(=O)c3ccc(C(F)(F)F)cn3)CC2)C[C@H]1c1ccc(Cl)cc1` [Example 261, {(3S,4R)-4-(4-Chloro-phenyl)-1-[1-(5-trifluoromethyl-pyridine-2-carbonyl)-piperidine-4-carbonyl]-pyrrolidin-3-yl}-methyl-carbamic acid 4-fluoro-phenyl ester], which Ki is on record?
Answer: 18.9 nM

Question: With `CN(C(=O)Oc1ccc(F)cc1)[C@@H]1CN(C(=O)C2CCN(C(=O)c3ccc(F)cn3)CC2)C[C@H]1c1ccc(Cl)cc1` [Example 262, {(3S,4R)-4-(4-Chloro-phenyl)-1-[1-(5-fluoro-pyridine-2-carbonyl)-piperidine-4-carbonyl]-pyrrolidin-3-yl}-methyl-carbamic acid 4-fluoro-phenyl ester] as the compound, how does the Ki read?
Answer: 3.9 nM

Question: `CN(C(=O)Oc1ccc(F)cc1)[C@@H]1CN(C(=O)C2CCN(C(=O)C3CCC(=O)NC3)CC2)C[C@H]1c1ccc(Cl)cc1` (stereo partly drawn) [Example 263, {(3S,4R)-4-(4-Chloro-phenyl)-1-[1-(6-oxo-piperidine-3-carbonyl)-piperidine-4-carbonyl]-pyrrolidin-3-yl}-methyl-carbamic acid 4-fluoro-phenyl ester] was tested. Which Ki did it give?
Answer: 15.1 nM

Question: For `CC(C)N1CC(C(=O)N2CCC(C(=O)N3C[C@@H](N(C)C(=O)Oc4ccc(F)cc4)[C@H](c4ccc(Cl)cc4)C3)CC2)CCC1=O` (stereo partly drawn) [Example 264, {(3S,4R)-4-(4-Chloro-phenyl)-1-[1-(1-isopropyl-6-oxo-piperidine-3-carbonyl)-piperidine-4-carbonyl]-pyrrolidin-3-yl}-methyl-carbamic acid 4-fluoro-phenyl ester], which Ki is on record?
Answer: 8.8 nM

Question: Which Ki does the source give for `CN(C(=O)Oc1ccc(F)cc1)[C@@H]1CN(C(=O)C2CCN(C(=O)C3CCC3)CC2)C[C@H]1c1ccc(Cl)c(Cl)c1` [Example 265, [(3S,4R)-1-(1-Cyclobutanecarbonyl-piperidine-4-carbonyl)-4-(3,4-dichloro-phenyl)-pyrrolidin-3-yl]-methyl-carbamic acid 4-fluoro-phenyl ester] here?
Answer: 0.6 nM

Question: Which Ki does the source give for `CN(C(=O)Oc1ccc(F)cc1)[C@@H]1CN(C(=O)C2CCN(C(=O)C3(C)COC3)CC2)C[C@H]1c1ccc(Cl)c(Cl)c1` [Example 266, {(3S,4R)-4-(3,4-Dichloro-phenyl)-1-[1-(3-methyl-oxetane-3-carbonyl)-piperidine-4-carbonyl]-pyrrolidin-3-yl}-methyl-carbamic acid 4-fluoro-phenyl ester] here?
Answer: 0.5 nM

Question: With `CN(C(=O)Oc1ccc(F)cc1)[C@@H]1CN(C(=O)C2CCN(C(=O)C3CC(F)C3)CC2)C[C@H]1c1ccc(Cl)c(Cl)c1` (stereo partly drawn) [Example 267, {(3S,4R)-4-(3,4-Dichloro-phenyl)-1-[1-(3-fluoro-cyclobutanecarbonyl)-piperidine-4-carbonyl]-pyrrolidin-3-yl}-methyl-carbamic acid 4-fluoro-phenyl ester] as the compound, how does the Ki read?
Answer: 0.7 nM

Question: For `CN(C(=O)Oc1ccc(F)cc1)[C@@H]1CN(C(=O)C2CCN(C(=O)C3CC(F)(F)C3)CC2)C[C@H]1c1ccc(Cl)c(Cl)c1` [Example 268, {(3S,4R)-4-(3,4-Dichloro-phenyl)-1-[1-(3,3-difluoro-cyclobutanecarbonyl)-piperidine-4-carbonyl]-pyrrolidin-3-yl}-methyl-carbamic acid 4-fluoro-phenyl ester], which Ki is on record?
Answer: 0.6 nM

Question: Which Ki does the source give for `COC1CC(C(=O)N2CCC(C(=O)N3C[C@@H](N(C)C(=O)Oc4ccc(F)cc4)[C@H](c4ccc(Cl)c(Cl)c4)C3)CC2)C1` (stereo partly drawn) [Example 269, {(3S,4R)-4-(3,4-Dichloro-phenyl)-1-[1-(3-methoxy-cyclobutanecarbonyl)-piperidine-4-carbonyl]-pyrrolidin-3-yl}-methyl-carbamic acid 4-fluoro-phenyl ester] here?
Answer: 0.5 nM

Question: How did the Ki turn out when `CN(C(=O)Oc1ccc(F)cc1)[C@@H]1CN(C(=O)C2CCN(C(=O)C3(C(F)(F)F)CCC3)CC2)C[C@H]1c1ccc(Cl)c(Cl)c1` [Example 270, {(3S,4R)-4-(3,4-Dichloro-phenyl)-1-[1-(1-trifluoromethyl-cyclobutanecarbonyl)-piperidine-4-carbonyl]-pyrrolidin-3-yl}-methyl-carbamic acid 4-fluoro-phenyl ester] was run?
Answer: 0.6 nM
